The source of these data is patent publication US20090093469A1, “Phenylaminopropanol Derivatives and Methods of Their Use” (WYETH, priority 2004, published 2009).

The target of the test is T1, hNET (Homo sapiens, UniProt P23975).
T1 construct: expressed in transfected cells
Briefly: Norepinephrine (NE) uptake assay in MDCK-Net6 cells stably transfected with human hNET. Format: cell-based. As to the method:
Cells were plated at 300,000/T75 flask and cells were split twice weekly. […] Cells were plated at 250,000 cells/T75 flask and split twice weekly.
On day 1, cells were plated at 3,000 cells/well in growth medium and maintained in a cell incubator (37° C., 5% CO2). On day 2, growth medium was replaced with 200 μl of assay buffer (25 mM HEPES; 120 mM NaCl; 5 mM KCl; 2.5 mM CaCl2; 1.2 mM MgSO4; 2 mg/ml glucose (pH 7.4, 37° C.)) containing 0.2 mg/ml ascorbic acid and 10 μM pargyline. Plates containing cells with 200 μl of assay buffer were equilibrated for 10 minutes at 37° C. prior to addition of compounds. A stock solution of desipramine was prepared in DMSO (10 mM) and delivered to triplicate wells containing cells for a final test concentration of 1 μM. Data from these wells were used to define non-specific NE uptake (minimum NE uptake). Test compounds were prepared in DMSO (10 mM) and diluted in assay buffer according to test range (1 to 10,000 nM). Twenty-five microliters of assay buffer (maximum NE uptake) or test compound were added directly to triplicate wells containing cells in 200 μl of assay buffer. The cells in assay buffer with test compounds were incubated for 20 minutes at 37° C. To initiate the NE uptake, [^3H]NE diluted in assay buffer (120 nM final assay concentration) was delivered in 25 μl aliquots to each well and the plates were incubated for 5 minutes (37° C.). The reaction was terminated by decanting the supernatant from the plate. The plates containing cells were washed twice with 200 μl assay buffer (37° C.) to remove free radioligand. The plates were then inverted, left to dry for 2 minutes, then reinverted and air-dried for an additional 10 minutes. The cells were lysed in 25 μl of 0.25 N NaOH solution (4° C.), placed on a shake table and vigorously shaken for 5 minutes. After cell lysis, 75 μl of scintillation cocktail was added to each well and the plates were sealed with film tape. The plates were returned to the shake table and vigorously shaken for a minimum of 10 minutes to ensure adequate partitioning of organic and aqueous solutions. The plates were counted in a Wallac Microbeta counter (PerkinElmer) to collect the raw cpm data.
For each experiment, a data stream of cpm values collected from the Wallac Microbeta counter was downloaded to a Microsoft Excel statistical application program. Calculations of EC50 values were made using the transformed-both-sides logistic dose response program written by Wyeth Biometrics Department.

The mark [1] stands for this setting: test compound 1 μM, [3H]NE uptake, MDCK-Net6 cells, read-out: % Inhibition @ 1 μM (hNET).
The mark [2] stands for this setting: MDCK-Net6, read-out: % Inhibition @ 1 μM (hNET).

Each structure is given as a SMILES string. Structures can show the parent of a compound that is named as a salt. Where two headings read alike, the source gives them in different places.

T1 sequence (P23975 whole entry): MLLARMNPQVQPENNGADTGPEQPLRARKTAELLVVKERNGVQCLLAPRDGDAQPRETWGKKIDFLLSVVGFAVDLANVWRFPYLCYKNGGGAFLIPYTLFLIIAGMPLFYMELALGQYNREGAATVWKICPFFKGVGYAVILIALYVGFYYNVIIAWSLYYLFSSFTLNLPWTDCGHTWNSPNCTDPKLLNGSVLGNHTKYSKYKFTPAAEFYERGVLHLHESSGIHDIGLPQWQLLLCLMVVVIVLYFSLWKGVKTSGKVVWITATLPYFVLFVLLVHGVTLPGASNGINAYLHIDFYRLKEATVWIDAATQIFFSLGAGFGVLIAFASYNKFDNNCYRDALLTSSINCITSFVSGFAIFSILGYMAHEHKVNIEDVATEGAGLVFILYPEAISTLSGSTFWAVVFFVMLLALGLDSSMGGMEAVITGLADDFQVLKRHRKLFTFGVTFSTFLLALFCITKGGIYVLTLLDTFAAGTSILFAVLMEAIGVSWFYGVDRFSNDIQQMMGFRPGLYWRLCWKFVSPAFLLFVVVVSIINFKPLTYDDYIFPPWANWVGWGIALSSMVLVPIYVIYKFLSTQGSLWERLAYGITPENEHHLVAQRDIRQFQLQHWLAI

Consider `CNC[C@@H](O)[C@H](c1ccccc1)n1ccc2cccc(Cl)c21` [Example 148, (1S,2R)-1-(7-chloro-1H-indol-1-yl)-3-(methylamino)-1-phenylpropan-2-ol hydrochloride], for which the inhibition at 1 µM under setting [1] came out at 97.8%.

As to `CNC[C@@H](O)[C@H](c1cccc(C(F)(F)F)c1)N1CCc2ccccc21` [Example 138, (1S,2R)-1-(2,3-dihydro-1H-indol-1-yl)-3-(methylamino)-1-[3-(trifluoromethyl)phenyl]propan-2-ol hydrochloride], under setting [1], the inhibition at 1 µM amounted to 97.9%.

Regarding `CNC[C@@H](O)[C@H](c1cccc(F)c1)n1ccc2cc(C)ccc21` [Example 92, ((1S,2R)-1-(3-fluorophenyl)-3-(methylamino)-1-(5-methyl-1H-indol-1-yl)propan-2-ol hydrochloride], the inhibition at 1 µM under setting [2] is 85.8%.

For `CNC[C@@H](O)[C@H](c1ccc(F)c(F)c1)n1ccc2ccccc21` [Example 140, (1S,2R)-1-(3,4-difluorophenyl)-1-(1H-indol-1-yl)-3-(methylamino)propan-2-ol hydrochloride], the inhibition at 1 µM under setting [1] worked out at 96.7%.

Turning to `CCNC[C@@H](O)[C@H](c1ccccc1)n1c(=O)n(C(C)C)c2ccc(F)cc21` [Example 204, 3-[(1S,2R)-3-(ethylamino)-2-hydroxy-1-phenylpropyl]-5-fluoro-1-isopropyl-1,3-dihydro-2H-benzimidazol-2-one hydrochloride], the inhibition at 1 µM under setting [2] is 47.4%.

Consider `CCNC[C@H](O)[C@@H](c1ccccc1)n1cc(C)c2ccccc21` (racemic) [Example 12, (1RS,2SR)-3-(ethylamino)-1-(3-methyl-1H-indol-1-yl)-1-phenyl propan-2-ol hydrochloride], for which, under setting [2], the inhibition at 1 µM came to 70.6%.

Regarding `CNC[C@@H](O)[C@H](c1cccc(F)c1)n1cc(-c2ccc(C)cc2)c2ccccc21` [Example 170, (1S,2R)-1-(3-fluorophenyl)-3-(methylamino)-1-[3-(4-methylphenyl)-1H-indol-1-yl]propan-2-ol hydrochloride], the inhibition at 1 µM under setting [1] was 96.4%.

For the molecule `CCN(C)C[C@H](O)[C@@H](c1ccccc1)n1ccc2ccccc21` (racemic) [Example 25, (1RS,2SR)-3-[ethyl(methyl)amino]-1-(1H-indol-1-yl)-1-phenylpropan-2-ol hydrochloride], under setting [1], the inhibition at 1 µM was determined as 37.5%.

Turning to `CNC[C@@H](O)[C@H](c1ccccc1F)n1ccc2ccccc21` [Example 50, (1S,2R)-1-(2-fluorophenyl)-1-(1H-indol-1-yl)-3-(methylamino)propan-2-ol hydrochloride], under setting [2], the inhibition at 1 µM was found to be 91.8%.

With `CNC[C@@H](O)[C@H](c1cccc(F)c1)n1ccc2cc(Cl)ccc21` [Example 153, (1S,2R)-1-(5-chloro-1H-indol-1-yl)-1-(3-fluorophenyl)-3-(methylamino)propan-2-ol hydrochloride], the inhibition at 1 µM under setting [2] is 97.4%.

Regarding `CNC[C@@H](O)[C@H](c1cccc(F)c1)n1cc(C(C)(C)C)c2ccccc21` [Example 189, (1S,2R)-1-(3-tert-butyl-1H-indol-1-yl)-1-(3-fluorophenyl)-3-(methylamino)propan-2-ol], under setting [1], the inhibition at 1 µM is 99.3%.

On to `Cc1cn([C@H](c2ccccc2)[C@@H](O)CNCC2CCCCC2)c2ccccc12` (racemic) [Example 9, (1RS,2SR)-3-[(cyclohexylmethyl)amino]-1-(3-methyl-1H-indol-1-yl)-1-phenylpropan-2-ol hydrochloride], for which testing at 10 µM (test compound 10 μM (stated in cell), [3H]NE uptake, MDCK-Net6 cells) gave an inhibition of 79.2%.

For the molecule `CNC[C@@H](O)[C@H](c1ccccc1)n1ccc2cc(F)ccc21` [Example 75, (1S,2R)-1-(5-fluoro-1H-indol-1-yl)-3-(methylamino)-1-phenylpropan-2-ol hydrochloride], the inhibition at 1 µM under setting [2] amounted to 88.4%.

Turning to `CNC[C@@H](O)[C@H](c1cccc(F)c1)n1cc(-c2ccccc2Cl)c2ccccc21` [Example 214, (1S,2R)-1-[3-(2-chlorophenyl)-1H-indol-1-yl]-1-(3-fluorophenyl)-3-(methylamino)propan-2-ol hydrochloride], the inhibition at 1 µM under setting [1] was 99.9%.

Turning to `CNC[C@@H](O)[C@@H](c1ccccc1)n1ccc2cc(Cl)ccc21` (racemic) [Example 27, hydrochloride], the inhibition at 1 µM under setting [2] amounted to 75.4%.

With `CNC[C@@H](O)[C@H](c1ccccc1)n1ccc2cc(OC)ccc21` (racemic) [Example 80, (1RS,2SR)-1-(5-methoxy-1H-indol-1-yl)-3-(methylamino)-1-phenyl propan-2-ol hydrochloride], the inhibition at 1 µM under setting [2] was found to be 83.5%.

With `CNC[C@H](O)[C@@H](c1ccccc1)n1ccc2cc(F)ccc21` (racemic) [Example 20, (1RS,2SR)-1-(5-fluoro-1H-indol-1-yl)-3-(methylamino)-1-phenylpropan-2-ol hydrochloride], the inhibition at 1 µM under setting [2] was 85%.

As for `CCn1c(=O)n([C@@H](c2ccccc2)[C@H](O)CNC)c2ccccc21` [Example 200, 1-Ethyl-3-[(1S,2R)-2-hydroxy-3-(methylamino)-1-phenylpropyl]-1,3-dihydro-2H-benzimidazol-2-one hydrochloride], the inhibition at 1 µM under setting [2] was determined as 97.9%.

Consider `CNC[C@@H](O)[C@H](c1ccccc1)n1ccc2cccc(C)c21` [Example 91, (1S,2R)-3-(methylamino)-1-(7-methyl-1H-indol-1-yl)-1-phenylpropan-2-ol hydrochloride], for which the inhibition at 1 µM under setting [1] is 90.8%.

Regarding `CNC[C@H](O)[C@@H](c1ccccc1)n1cc(C#N)c2ccccc21` (racemic) [Example 28, 1-[(1RS,2SR)-2-hydroxy-3-(methylamino)-1-phenylpropyl]-1H-indole-3-carbonitrile hydrochloride], under setting [1], the inhibition at 1 µM came to 30.1%.

Consider `CNC[C@@H](O)[C@H](c1ccccc1)n1ccc2c(C)cccc21` [Example 94, (1S,2R)-3-(methylamino)-1-(4-methyl-1H-indol-1-yl)-1-phenylpropan-2-ol hydrochloride], for which the inhibition at 1 µM under setting [1] was found to be 94.9%.

Consider `CNCC(O)[C@@H](c1ccccc1)n1ccc2ccccc21` (stereo in doubt) [Example 22, (1R,2S)-1-(1H-indol-1-yl)-3-(methylamino)-1-phenylpropan-2-ol hydrochloride], for which the inhibition at 1 µM under setting [2] was 83.8%.

Take `CNC[C@@H](O)[C@H](c1cccc(F)c1)N1C(=O)C(C)(C)c2ccccc21` [Example 210, 1-[(1S,2R)-1-(3-fluorophenyl)-2-hydroxy-3-(methylamino)propyl]-3,3-dimethyl-1,3-dihydro-2H-indol-2-one hydrochloride]: the inhibition at 1 µM under setting [1] amounted to 96.3%.

For the molecule `CNC[C@@H](O)[C@H](c1cccc(F)c1)n1ccc2cccc(Cl)c21` [Example 149, (1S,2R)-1-(7-chloro-1H-indol-1-yl)-1-(3-fluorophenyl)-3-(methylamino)propan-2-ol hydrochloride], the inhibition at 1 µM under setting [2] was 100%.

Take `O[C@@H](CN1CCCCC1)[C@@H](c1ccccc1)n1ccc2cc(Cl)ccc21` (racemic) [Example 15, (1RS,2SR)-1-(5-chloro-1H-indol-1-yl)-1-phenyl-3-piperidin-1-ylpropan-2-ol hydrochloride]: the inhibition at 1 µM under setting [1] amounted to 8.5%.

For the molecule `CNC[C@@H](O)[C@H](c1cccc(F)c1)n1c(=O)n(C(C)C)c2cccc(F)c21` [Example 208, 4-fluoro-3-[(1S,2R)-1-(3-fluorophenyl)-2-hydroxy-3-(methylamino)-propyl]-1-isopropyl-1,3-dihydro-2H-benzimidazol-2-one hydrochloride], the inhibition at 1 µM under setting [2] worked out at 99.8%.

As for `CNC[C@@H](O)[C@H](c1cccc(F)c1)n1ccc2c(Cl)cccc21` [Example 150, (1S,2R)-1-(4-chloro-1H-indol-1-yl)-1-(3-fluorophenyl)-3-(methylamino)propan-2-ol hydrochloride], the inhibition at 1 µM under setting [2] came to 98.3%.

For the molecule `NCC[C@@H](O)[C@H](c1cccc(F)c1)n1ccc2ccccc21` [Example 159, (1S,2R)-4-amino-1-(3-fluorophenyl)-1-(1H-indol-1-yl)butan-2-ol hydrochloride], the inhibition at 1 µM under setting [1] was 93.8%.

Regarding `CNC[C@@H](O)[C@H](c1cccc(F)c1)n1ccc2cc(F)ccc21` [Example 85, (1S,2R)-1-(5-fluoro-1H-indol-1-yl)-1-(3-fluorophenyl)-3-(methyl-amino)propan-2-ol hydrochloride], the inhibition at 1 µM under setting [2] came out at 97.4%.

For `CNC[C@@H](O)[C@H](c1ccccc1)N1C(=O)C(C)(C)c2cc(Br)ccc21` [Example 194, 5-bromo-1-[(1S,2R)-2-hydroxy-3-(methylamino)-1-phenylpropyl]-3,3-dimethyl-1,3-dihydro-2H-indol-2-one hydrochloride], the inhibition at 1 µM under setting [1] is 79%.

What is called inhibition is the percentage by which the read-out fell short of the control.
